Measured values taken from a compilation of properties of binary mixtures (doi:10.1007/s10953-022-01154-2).

Test: xn = mol fraction of the nth substance listed
Settings: 101.3 kPa

CC[n+]1ccn(C)c1.N#C[S-] + CC1COC(=O)O1
Settings | electrical conductivity [S/m] | viscosity [mPa·s]
293.15 K, x1 = 0.0989 | 1.49 | 4.213
293.15 K, x1 = 0.4 | 2.17 | 9.86
293.15 K, x1 = 0.499 | 2.06 | 12.27
293.15 K, x1 = 0.599 | 1.96 | 15.04
293.15 K, x1 = 0.7045 | 1.89 | 18.06
293.15 K, x1 = 0.796 | 1.77 | 20.66
293.15 K, x1 = 0.8942 | 1.66 | 23.53
293.15 K, x1 = 1 | 1.58 | 26.76
298.15 K, x1 = 0.2045 | 2.28 | 5.073
298.15 K, x1 = 0.2984 | 2.45 | 6.601
298.15 K, x1 = 0.499 | 2.25 | 10.59
298.15 K, x1 = 0.796 | 1.97 | 17.73
298.15 K, x1 = 0.8942 | 1.86 | 20.22
298.15 K, x1 = 1 | 1.75 | 23.11
303.15 K, x1 = 0.0989 | 1.86 | 3.259
303.15 K, x1 = 0.2045 | 2.48 | 4.415
303.15 K, x1 = 0.2984 | 2.67 | 5.742
303.15 K, x1 = 0.4 | 2.58 | 7.328
303.15 K, x1 = 0.499 | 2.47 | 9.17
303.15 K, x1 = 0.599 | 2.38 | 11.19
303.15 K, x1 = 0.7045 | 2.28 | 13.39
303.15 K, x1 = 0.796 | 2.19 | 15.34
303.15 K, x1 = 0.8942 | 2.06 | 17.54
303.15 K, x1 = 1 | 1.95 | 20.12
308.15 K, x1 = 0.0989 | 2.09 | 2.877
308.15 K, x1 = 0.2045 | 2.7 | 3.859
308.15 K, x1 = 0.2984 | 2.92 | 4.972
308.15 K, x1 = 0.4 | 2.82 | 6.341
308.15 K, x1 = 0.499 | 2.71 | 7.916
308.15 K, x1 = 0.599 | 2.62 | 9.67
308.15 K, x1 = 0.7045 | 2.52 | 11.57
308.15 K, x1 = 0.796 | 2.42 | 13.28
308.15 K, x1 = 0.8942 | 2.29 | 15.21
308.15 K, x1 = 1 | 2.17 | 17.5
313.15 K, x1 = 0.0989 | 2.32 | 2.569
313.15 K, x1 = 0.2045 | 2.94 | 3.39
313.15 K, x1 = 0.2984 | 3.17 | 4.367
313.15 K, x1 = 0.4 | 3.07 | 5.56
313.15 K, x1 = 0.499 | 2.96 | 6.909
313.15 K, x1 = 0.599 | 2.87 | 8.432
313.15 K, x1 = 0.796 | 2.67 | 11.58
313.15 K, x1 = 0.8942 | 2.52 | 13.32
313.15 K, x1 = 1 | 2.39 | 15.32
318.15 K, x1 = 0.0989 | 2.55 | 2.299
318.15 K, x1 = 0.4 | 3.33 | 4.83
318.15 K, x1 = 0.499 | 3.22 | 5.988
318.15 K, x1 = 0.796 | 2.92 | 10.18
318.15 K, x1 = 1 | 2.64 | 13.45
323.15 K, x1 = 0.0989 | 2.8 | 2.074
323.15 K, x1 = 0.2984 | 3.72 | 3.34
323.15 K, x1 = 0.4 | 3.6 | 4.247
323.15 K, x1 = 0.7045 | 3.28 | 7.629
323.15 K, x1 = 0.796 | 3.18 | 8.83
323.15 K, x1 = 0.8942 | 3.03 | 10.15
323.15 K, x1 = 1 | 2.89 | 11.78
328.15 K, x1 = 0.0989 | 3.05 | 1.878
328.15 K, x1 = 0.2045 | 3.72 | 2.36
328.15 K, x1 = 0.2984 | 4 | 2.943
328.15 K, x1 = 0.4 | 3.88 | 3.72
328.15 K, x1 = 0.7045 | 3.55 | 6.692
328.15 K, x1 = 1 | 3.15 | 10.37
333.15 K, x1 = 0.2045 | 4.02 | 2.095
333.15 K, x1 = 0.2984 | 4.29 | 2.593
333.15 K, x1 = 0.4 | 4.18 | 3.284
333.15 K, x1 = 0.499 | 4.06 | 4.06
333.15 K, x1 = 0.599 | 3.96 | 4.939
333.15 K, x1 = 0.7045 | 3.84 | 5.885
333.15 K, x1 = 0.796 | 3.74 | 6.792
333.15 K, x1 = 0.8942 | 3.6 | 7.876
333.15 K, x1 = 1 | 3.43 | 9.21
338.15 K, x1 = 0.2045 | 4.34 | –
338.15 K, x1 = 0.2984 | 4.61 | –
338.15 K, x1 = 0.4 | 4.47 | –
338.15 K, x1 = 0.499 | 4.35 | –
338.15 K, x1 = 0.599 | 4.26 | –
338.15 K, x1 = 0.7045 | 4.13 | –
338.15 K, x1 = 0.796 | 4.02 | –
338.15 K, x1 = 0.8942 | 3.89 | –
338.15 K, x1 = 1 | 3.72 | –
338.18 K, x1 = 0.0989 | – | 1.557
338.18 K, x1 = 0.2045 | – | 1.89
338.18 K, x1 = 0.4 | – | 2.891
338.18 K, x1 = 0.499 | – | 3.563
338.18 K, x1 = 0.599 | – | 4.34
338.18 K, x1 = 0.7045 | – | 5.225
338.18 K, x1 = 0.796 | – | 6.089
338.18 K, x1 = 0.8942 | – | 7.068
338.18 K, x1 = 1 | – | 8.1
343.15 K, x1 = 0.0989 | 3.88 | 1.432
343.15 K, x1 = 0.2045 | 4.67 | 1.699
343.15 K, x1 = 0.2984 | 4.92 | 2.057
343.15 K, x1 = 0.599 | 4.57 | 3.859
343.15 K, x1 = 0.7045 | 4.44 | 4.651
343.15 K, x1 = 0.796 | 4.32 | 5.421
343.15 K, x1 = 0.8942 | 4.2 | 6.296
